ChEMBL document CHEMBL1909626, “4-N-Hydroxy-4-[1-(sulfonyl)piperidin-4-yl]-butyramides as HDAC inhibitors” (Bioorg Med Chem Lett, 2011)

What was measured:
[1] = target: T1, Histone deacetylase (Homo sapiens) (UniProt Q13547+O15379+Q9UBN7+Q92769+Q9UQL6+Q8WUI4+Q9BY41+Q96DB2+P56524+Q9UKV0+Q969S8); conditions: HeLa, at 1 µM
Description: Inhibition of HDAC in human HeLa cell extract assessed as fluorophore release at 1 uM by fluorescence spectrophotometry

[2] = target: T1, Histone deacetylase (Homo sapiens); conditions: HeLa, at 0.1 µM
Description: Inhibition of HDAC in human HeLa cell extract assessed as fluorophore release at 0.1 uM by fluorescence spectrophotometry

[3] = target: Histone deacetylase; experiment: Inhibition of HDAC in human HeLa cell extract assessed as fluorophore release by fluorescence spectrophotometry; type: protein assay
[4] = Fraction unbound in plasma; type: ADME, cell-free
[5] = target: T1, Histone deacetylase (Homo sapiens); conditions: HeLa, at 10 µM
Description: Inhibition of HDAC in human HeLa cell extract assessed as fluorophore release at 10 uM by fluorescence spectrophotometry

[6] = test system: HCT-116; experiment: Growth inhibition of human HCT116 cells after 5 days by alamar blue assay; type: functional; conditions: HCT-116, 120 h
[7] = test system: Liver; experiment: Metabolic stability in rat liver S9 fraction assessed as compound remaining; type: ADME, subcellular

SMILES	inhibition [1] [%]	inhibition [2] [%]	IC50 [3] [nM]	fraction unbound [4]	inhibition [5] [%]	GI50 [6] [nM]	Stability [7] [%]
O=C(CCCC1CCN(S(=O)(=O)c2cccc(Cl)c2)CC1)NO	40	4					
O=C(CCCC1CCN(S(=O)(=O)c2ccc3c(c2)OCCO3)CC1)NO	68	29					
O=C(/C=C/CC1CCN(S(=O)(=O)c2ccccc2)CC1)NO	48	19			78		
O=C(CCCC1CCN(S(=O)(=O)c2ccccc2C(F)(F)F)CC1)NO	69	30					
CC1(C)CCc2cc(S(=O)(=O)N3CCC(CCCC(=O)NO)CC3)ccc2O1	75	30			86		
CN1CCOc2cc(S(=O)(=O)N3CCC(CCCC(=O)NO)CC3)ccc21	71	32					
O=C(CCCC1CCN(S(=O)(=O)NCc2ccccc2)CC1)NO	65	29					
O=C(CCCC1CCN(S(=O)(=O)c2ccc3c(c2)CCO3)CC1)NO	72	36					
COc1ccc(S(=O)(=O)N2CCC(CCCC(=O)NO)CC2)cc1OC	71	31	317		84		
O=C(CCCC1CCN(S(=O)(=O)c2cccc(C(F)(F)F)c2)CC1)NO	57	13					
Cc1cc(C)cc(S(=O)(=O)N2CCC(CCCC(=O)NO)CC2)c1	65	22			86		
CN(c1ccccc1)S(=O)(=O)N1CCC(CCCC(=O)NO)CC1	48	19					
CN(Cc1ccccc1)S(=O)(=O)N1CCC(CCCC(=O)NO)CC1	56	29					
O=C(CCCC1CCN(S(=O)(=O)c2ccc3ncsc3c2)CC1)NO	69	26			84		
COc1ccc(S(=O)(=O)N2CCC(CCCC(=O)NO)CC2)c(OC)c1	62	22			83		
COc1cccc(S(=O)(=O)N2CCC(CCCC(=O)NO)CC2)c1	67	28			83		
Cc1cc(C)c(S(=O)(=O)N2CCC(CCCC(=O)NO)CC2)c(C)c1	75	32					

Next, values leading:

inhibition [1] [%]	inhibition [2] [%]	IC50 [3] [nM]	fraction unbound [4]	inhibition [5] [%]	GI50 [6] [nM]	Stability [7] [%]	SMILES
80	40	181	0.03	74	1040	14	O=C(CCCC1CCN(S(=O)(=O)c2cccc3ccccc23)CC1)NO
71	28						Cc1ccc(S(=O)(=O)N2CCC(CCCC(=O)NO)CC2)cc1
75	37			84			O=C(CCCC1CCN(S(=O)(=O)c2ccccc2O)CC1)NO
70	40				2000		O=C(CCCC1CCN(S(=O)(=O)Nc2ccccc2)CC1)NO
68	53	128	0.02	86	1900	2	O=C(CCCC1CCN(S(=O)(=O)c2ccc3ccccc3c2)CC1)NO
60	21						O=C(CCCC1CCN(S(=O)(=O)c2ccc(F)cc2)CC1)NO
51	9						CC(C)(C)c1ccc(S(=O)(=O)N2CCC(CCCC(=O)NO)CC2)cc1
77	42	173		86	2800		O=C(CCCC1CCN(S(=O)(=O)c2ccccc2Cl)CC1)NO
63	23			84	2700		O=C(CCCC1CCN(S(=O)(=O)c2ccccc2)CC1)NO
69	29						Cc1ccccc1S(=O)(=O)N1CCC(CCCC(=O)NO)CC1
55	15						O=C(CCCC1CCN(S(=O)(=O)c2ccc(C(F)(F)F)cc2)CC1)NO
62	25						O=C(CCCC1CCN(S(=O)(=O)c2ccc(Cl)cc2)CC1)NO
75	38	213		85			O=C(CCCC1CCN(S(=O)(=O)c2cccc(-c3cnco3)c2)CC1)NO
66	18	537		84			CC(C)c1ccc(S(=O)(=O)N2CCC(CCCC(=O)NO)CC2)cc1
61	24			83			Cc1cccc(S(=O)(=O)N2CCC(CCCC(=O)NO)CC2)c1
58	17			71	3200		O=C(CCCC1CCN(S(=O)(=O)Cc2ccccc2)CC1)NO
44	20			80			O=C(CCCC1CCN(S(=O)(=O)c2ccc(-c3ccccc3)cc2)CC1)NO
82	48	124		86	17300		Cc1cc(S(=O)(=O)N2CCC(CCCC(=O)NO)CC2)cc2ccccc12
74	35						O=C(CCCC1CCN(S(=O)(=O)c2ccc(-c3cnco3)cc2)CC1)NO
